Test results published in PubChem BioAssay AID1963843 (Molecular Pharmacology Branch, DTP, NCI, 2024).
pIC50: −log10 of the molar value.

Test system: 616215-338-R-J1-PDC complex spheroid viability
Assay: Anticancer human tumor 616215-338-R-J1-PDC patient-derived colon adenocarcinoma cell line growth inhibition [POLQ]
Details: for pIC50: curve of first compound; for viability, T/C: stronger effect = lower value; active = viability on the fitted dose curve at most 10% of control; inactive = the rest
Summary of the method: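 Complex spheroid viability model combining PDC tumour cells with endothelial (HUVEC) and MSC stromal cells. Novobiocin, ART-558 or RP6685 were tested singly and in combination with standard and investigational anticancer drugs. Each was titrated in half-log steps from near clinical Cmax, or from 10 microM where Cmax was unknown.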

[1] = second compound 0.0316 µM, first compound 0.0316 µM
[2] = second compound 0.0316 µM, first compound 0.1 µM
[3] = second compound 0.1 µM, first compound 0.0316 µM
[4] = second compound 0.1 µM, first compound 0.1 µM
[5] = second compound 0.316 µM, first compound 0.0316 µM
[6] = second compound 0.316 µM, first compound 0.1 µM
[7] = second compound 1 µM, first compound 0.0316 µM
[8] = second compound 1 µM, first compound 0.1 µM
[9] = second compound 3.16 µM, first compound 0.0316 µM
[10] = second compound 3.16 µM, first compound 0.1 µM
[11] = second compound 10 µM, first compound 0.0316 µM
[12] = second compound 10 µM, first compound 0.1 µM
[13] = second compound 0.0316 µM, first compound 0.316 µM
[14] = second compound 0.0316 µM, first compound 1 µM
[15] = second compound 0.0316 µM, first compound 3.16 µM
[16] = second compound 0.0316 µM, first compound 10 µM
[17] = second compound 0.1 µM, first compound 0.316 µM
[18] = second compound 0.1 µM, first compound 1 µM
[19] = second compound 0.1 µM, first compound 3.16 µM
[20] = second compound 0.1 µM, first compound 10 µM
[21] = second compound 0.316 µM, first compound 0.316 µM
[22] = second compound 0.316 µM, first compound 1 µM
[23] = second compound 0.316 µM, first compound 3.16 µM
[24] = second compound 0.316 µM, first compound 10 µM
[25] = second compound 1 µM, first compound 0.316 µM
[26] = second compound 1 µM, first compound 1 µM
[27] = second compound 1 µM, first compound 3.16 µM
[28] = second compound 1 µM, first compound 10 µM
[29] = second compound 3.16 µM, first compound 0.316 µM
[30] = second compound 3.16 µM, first compound 1 µM
[31] = second compound 3.16 µM, first compound 3.16 µM
[32] = second compound 3.16 µM, first compound 10 µM
[33] = second compound 10 µM, first compound 0.316 µM
[34] = second compound 10 µM, first compound 1 µM
[35] = second compound 10 µM, first compound 3.16 µM
[36] = second compound 10 µM, first compound 10 µM
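Also: spheroids exposed to compounds for one week before readout.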
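For viability, T/C in this document: percent viability relative to DMSO vehicle wells taken as 100%.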

CC[C@@]1(O)C(=O)OCc2c1cc1n(c2=O)Cc2cc3c(CN(C)C)c(O)ccc3nc2-1 + COC1C(OC(N)=O)C(O)C(Oc2ccc3c(O)c(NC(=O)c4ccc(O)c(CC=C(C)C)c4)c(=O)oc3c2C)OC1(C)C
< 7.00: pIC50 (second compound 0.0316 µM) | pIC50 (second compound 0.1 µM) | pIC50 (second compound 0.316 µM) | pIC50 (second compound 1 µM) | pIC50 (second compound 3.16 µM) | pIC50 (second compound 10 µM)
inactive: viability, T/C (second compound 0.0316 µM, first compound 0.000316 µM) 99.3% | viability, T/C (second compound 0.0316 µM, first compound 0.001 µM) 97.5% | viability, T/C (second compound 0.0316 µM, first compound 0.00316 µM) 104% | viability, T/C (second compound 0.0316 µM, first compound 0.01 µM) 97.6% | viability, T/C [1] 102% | viability, T/C [2] 81.7% | viability, T/C (second compound 0.1 µM, first compound 0.000316 µM) 99.2% | viability, T/C (second compound 0.1 µM, first compound 0.001 µM) 112% | viability, T/C (second compound 0.1 µM, first compound 0.00316 µM) 99.5% | viability, T/C (second compound 0.1 µM, first compound 0.01 µM) 106% | viability, T/C [3] 106% | viability, T/C [4] 78.6% | viability, T/C (second compound 0.316 µM, first compound 0.000316 µM) 103% | viability, T/C (second compound 0.316 µM, first compound 0.001 µM) 93.5% | viability, T/C (second compound 0.316 µM, first compound 0.00316 µM) 95.1% | viability, T/C (second compound 0.316 µM, first compound 0.01 µM) 105% | viability, T/C [5] 110% | viability, T/C [6] 90.3% | viability, T/C (second compound 1 µM, first compound 0.000316 µM) 101% | viability, T/C (second compound 1 µM, first compound 0.001 µM) 98.8% | viability, T/C (second compound 1 µM, first compound 0.00316 µM) 98.5% | viability, T/C (second compound 1 µM, first compound 0.01 µM) 101% | viability, T/C [7] 101% | viability, T/C [8] 75.5% | viability, T/C (second compound 3.16 µM, first compound 0.000316 µM) 95.3% | viability, T/C (second compound 3.16 µM, first compound 0.001 µM) 101% | viability, T/C (second compound 3.16 µM, first compound 0.00316 µM) 99.4% | viability, T/C (second compound 3.16 µM, first compound 0.01 µM) 100% | viability, T/C [9] 101% | viability, T/C [10] 64.9% | viability, T/C (second compound 10 µM, first compound 0.000316 µM) 106% | viability, T/C (second compound 10 µM, first compound 0.001 µM) 99.5% | viability, T/C (second compound 10 µM, first compound 0.00316 µM) 96.2% | viability, T/C (second compound 10 µM, first compound 0.01 µM) 100% | viability, T/C [11] 93.5% | viability, T/C [12] 58.8%

CC1COCCN1c1cc(C2(S(C)(=N)=O)CC2)nc(-c2ccnc3[nH]ccc23)n1 (stereo unspecified) + COC1C(OC(N)=O)C(O)C(Oc2ccc3c(O)c(NC(=O)c4ccc(O)c(CC=C(C)C)c4)c(=O)oc3c2C)OC1(C)C
inactive: viability, T/C [1] 93.8% | viability, T/C [2] 104% | viability, T/C [13] 100% | viability, T/C [14] 98.5% | viability, T/C [15] 98.5% | viability, T/C [16] 67.1% | viability, T/C [3] 98.2% | viability, T/C [4] 91.7% | viability, T/C [17] 101% | viability, T/C [18] 96.6% | viability, T/C [19] 92.3% | viability, T/C [20] 73.9% | viability, T/C [5] 97.7% | viability, T/C [6] 103% | viability, T/C [21] 105% | viability, T/C [22] 95.5% | viability, T/C [23] 97.2% | viability, T/C [24] 65.1% | viability, T/C [7] 99.3% | viability, T/C [8] 99.1% | viability, T/C [25] 108% | viability, T/C [26] 104% | viability, T/C [27] 94.2% | viability, T/C [28] 63.9% | viability, T/C [9] 107% | viability, T/C [10] 100% | viability, T/C [29] 108% | viability, T/C [30] 94% | viability, T/C [31] 94.5% | viability, T/C [32] 60.6% | viability, T/C [11] 96.8% | viability, T/C [12] 95.3% | viability, T/C [33] 100% | viability, T/C [34] 98.6% | viability, T/C [35] 98.7% | viability, T/C [36] 61.8%
< 5.00: pIC50 (second compound 0.0316 µM) | pIC50 (second compound 0.1 µM) | pIC50 (second compound 0.316 µM) | pIC50 (second compound 1 µM) | pIC50 (second compound 3.16 µM) | pIC50 (second compound 10 µM)

Nc1ccn(C2OC(CO)C(O)C2(F)F)c(=O)n1 (stereo unspecified) + COC1C(OC(N)=O)C(O)C(Oc2ccc3c(O)c(NC(=O)c4ccc(O)c(CC=C(C)C)c4)c(=O)oc3c2C)OC1(C)C
> 7.50: pIC50 (second compound 0.0316 µM)
7.22: pIC50 (second compound 10 µM)
7.21: pIC50 (second compound 1 µM)
7.18: pIC50 (second compound 0.1 µM) | pIC50 (second compound 0.316 µM)
7.24: pIC50 (second compound 3.16 µM)
inactive: viability, T/C [1] 49.3% | viability, T/C [2] 32.9% | viability, T/C [13] 24% | viability, T/C [14] 35% | viability, T/C [15] 34% | viability, T/C [16] 30% | viability, T/C [3] 62.5% | viability, T/C [4] 42.8% | viability, T/C [17] 28.5% | viability, T/C [18] 29.1% | viability, T/C [19] 30.1% | viability, T/C [20] 35.3% | viability, T/C [5] 56.9% | viability, T/C [6] 46% | viability, T/C [21] 26.4% | viability, T/C [22] 27.7% | viability, T/C [23] 32.1% | viability, T/C [24] 32.9% | viability, T/C [7] 60.1% | viability, T/C [8] 42.7% | viability, T/C [25] 24.4% | viability, T/C [26] 23.2% | viability, T/C [27] 32.6% | viability, T/C [28] 29.3% | viability, T/C [9] 64.8% | viability, T/C [10] 39.5% | viability, T/C [29] 23.1% | viability, T/C [30] 27.8% | viability, T/C [31] 30.6% | viability, T/C [32] 30% | viability, T/C [11] 69.3% | viability, T/C [12] 34.6% | viability, T/C [33] 28.5% | viability, T/C [34] 28.1% | viability, T/C [35] 28.4% | viability, T/C [36] 36.5%
